Measured values from patent publication US10993957B2 (NuCana plc, priority 2011, dated 2021).
Read-outs that look alike come from different tables or passages of the source.

Assays:
Cem/0 = test: Cytostatic assay, CEM/0 cells; assay type: cell-based, human; conditions: for CC50: Table 1, read-out: CC50 Cem/0; for IC50: Table 6, read-out: IC50 Cem/0
From the text: (§1) The cell lines employed were L1210/0 (a leukemia cell line), FM3A/0 (a breast cancer cell line), Cem/0 (an acute lymphoblastic leukemia cell line) and HeLa (a cervical cell line).

L1210/0 = test: Cytostatic assay, L1210/0 cells; assay type: cell-based, murine; conditions: for IC50: read-out: IC50 L1210/0
From the text: as §1

Cem/TK^− = test: Cytostatic assay, thymidine kinase-deficient CEM/TK^− cells; assay type: cell-based, human; conditions: for IC50: Table 6, read-out: IC50 Cem/TK^−; for CC50: Table 1, read-out: CC50 Cem/TK^−
HeLa = test: Cytostatic assay, HeLa cells; assay type: cell-based; conditions: for CC50: Table 1, read-out: CC50 HeLa; for IC50: Table 6, read-out: IC50 HeLa
From the text: as §1

HeLa/TK^− = test: Cytostatic assay, HeLa/TK^− cells; assay type: cell-based; conditions: for IC50: Table 6, read-out: IC50 HeLa/TK^−
From the text: as §1

L1210/TK^− = test: Cytostatic assay, thymidine kinase-deficient L1210/TK^− cells; assay type: cell-based, murine; conditions: for CC50: L1210, Table 1, read-out: CC50 L1210/TK^−; for IC50: Table 6, read-out: IC50 L1210/TK^−
FM3A/0 = test: Cytostatic assay, FM3A/0 cells; assay type: cell-based; conditions: Mus musculus
Experimental: The samples were assayed for biological activity versus a range of tumour cell lines with data recorded in Table 1 below. […] The cell lines employed were L1210/0 (a leukemia cell line), FM3A/0 (a breast cancer cell line), Cem/0 (an acute lymphoblastic leukemia cell line) and HeLa (a cervical cell line).

L1210.Hyor = test: Cytostatic assay, Mycoplasma hyorhinis-infected L1210 cells; conditions: for % Retention: CC50 L1210 × 100 ÷ CC50 L1210/Hyor
Summary of the method: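 Suspension L1210/0 murine leukaemia cells infected with M. hyorhinis, seeded at 60,000 cells/well with test compound in DMEM/10% FBS and grown 48 h at 37 °C, 5% CO2. Cell number counted by Coulter counter; activity also expressed as % retained versus uninfected cells.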

Cem/hEnt-1 = test: Cytostatic assay, CEM cells containing the hEnt1 transporter; assay type: cell-based
From the text: (§2) Data are mean (±SD) of at least two to four independent experiments. Table 8 identifies the phosphoramidate motif of compounds embodying the present invention, as discussed above with respect to Table 6, but with “Naph” standing for 1-naphthyl.

Cem/hEnt-0 = test: Cytostatic assay, CEM cells lacking the hEnt1 transporter; assay type: cell-based; conditions: read-out: IC50 Cem/hEnt-0
From the text: as §2

FM3A/TK^− = test: Cytostatic assay, FM3A/TK^− cells; assay type: cell-based; conditions: Mus musculus, read-out: CC50 FM3A/TK^−
[1] = Mus musculus, L1210/0, Table 1, read-out: CC50 L1210/0
[2] = Mus musculus, L1210/0, Table 2, mycoplasma negative cells, read-out: CC50 L1210
[3] = Mus musculus, L1210, read-out: CC50 L1210/Hyor
[4] = Mus musculus, L1210, read-out: IC50 L1210.Hyor
[5] = Homo sapiens, CCRF-CEM, read-out: IC50 Cem/hEnt-1
[6] = read-out: IC50 Cem/hEnt-1 + NBMPR, in the presence of NBMPR
[7] = read-out: IC50 Cem/hEnt-1 + dipyridamole, in the presence of dipyridamole

Compound	CC50 (Cem/0; Homo sapiens, CCRF-CEM) [nM]	IC50 (Cem/0; Homo sapiens, CCRF-CEM) [nM]	CC50 (L1210/0; [1]) [nM]	IC50 (L1210/0; Mus musculus, L1210/0, Table 6) [nM]	IC50 (Cem/TK^−; Homo sapiens, CEM-TK(-)) [nM]	CC50 (HeLa; Homo sapiens, HeLa) [nM]	IC50 (HeLa; Homo sapiens, HeLa) [nM]	IC50 (HeLa/TK^−; Homo sapiens, HeLa) [nM]	CC50 (L1210/TK^−; Mus musculus) [nM]	IC50 (L1210/TK^−; Mus musculus, L1210) [nM]	CC50 (L1210/0; [2]) [nM]	IC50 (L1210/0; Mus musculus, L1210/0, Table 7) [nM]	CC50 (Cem/TK^−; Homo sapiens, CEM-TK(-)) [nM]	% Retention (L1210.Hyor) [%]	CC50 (L1210.Hyor; [3]) [nM]	IC50 (L1210.Hyor; [4]) [nM]	IC50(L1210.Hyor)/IC50(L1210/0) (L1210.Hyor; Table 7)	IC50 (Cem/hEnt-1; [5]) [nM]	IC50 (Cem/hEnt-1; [6]) [nM]	IC50 (Cem/hEnt-1; [7]) [nM]	also measured
O=c1[nH]cc(F)c(=O)[nH]1 [5-FU, 5-Fluorouracil, reference compound]	18000 ± 5000	18000 ± 5000	330 ± 170	330 ± 170	12000 ± 1000	540 ± 120	540 ± 120	230 ± 10	320 ± 310	320 ± 310											CC50 (FM3A/0; FM3A/0, Table 1, read-out: CC50 FM3A/0): 180 ± 20 nM
CCOC(=O)C(C)(C)NP(=O)(OC[C@H]1O[C@@H](n2cc(F)c(=O)[nH]c2=O)CC1O)Oc1ccccc1 (stereo partly drawn) [CPF 394, 5-Fluoro-2′deoxyuridine-5′-O-[phenyl (ethoxy-α,α-dimethylglycine)]phosphate]	650 ± 160	650 ± 160	39 ± 1	39 ± 1	22000 ± 1000		590 ± 90	17000 ± 2000	4600	4600	30	30 ± 0.5	22000 ± 1000	12	260	260 ± 10	8.7	370 ± 140	2560	2350	IC50 (Cem/hEnt-0; Homo sapiens, CCRF-CEM): 5800 ± 500 nM
CCOC(=O)[C@H](C)NP(=O)(OC[C@H]1O[C@@H](n2cc(F)c(=O)[nH]c2=O)CC1O)Oc1ccccc1 (stereo partly shown) [CPF 383]	920 ± 110	920 ± 110	130 ± 40	130 ± 40	14000	480 ± 190	480 ± 190	9800 ± 1400	940 ± 180	940 ± 180		110 ± 2.1	14000			540 ± 120	5				CC50 (FM3A/TK^−): 4100 ± 2000 nM; CC50 (HeLa/TK^−; Homo sapiens, HeLa, Table 1, read-out: CC50 HeLa/TK^−): 9800 ± 1400 nM; CC50 (FM3A/0; FM3A/0, read-out: CC50 FM3A/0): 640 ± 570 nM
CC(C)(NP(=O)(OC[C@H]1O[C@@H](n2cc(F)c(=O)[nH]c2=O)CC1O)Oc1ccccc1)C(=O)OCc1ccccc1 (stereo partly drawn) [CPF 393, 5-Fluoro-2′deoxyuridine-5′-O-[phenyl (benzoxy-α,α-dimethylglycine)]phosphate]	230 ± 40	230 ± 40	17 ± 3	17 ± 3	4800 ± 700		240 ± 70	3700 ± 100	180 ± 50	180 ± 50	29	29 ± 1	4800 ± 700	145	20	20 ± 2	0.69	170 ± 60	610	260	IC50 (Cem/hEnt-0; Homo sapiens, CCRF-CEM): 1200 ± 110 nM
C[C@H](NP(=O)(OC[C@H]1O[C@@H](n2cc(F)c(=O)[nH]c2=O)CC1O)Oc1cccc2ccccc12)C(=O)OC1CCCCC1 (stereo partly drawn) [CPF 509, 5-Fluoro-2′deoxyuridine-5′-O-[1-naphthyl (cyclohexoxy-L-alaninyl)]phosphate]	57 ± 55	57 ± 55	43 ± 23	43 ± 23	1000 ± 100	90 ± 14	90 ± 14		150	150		36 ± 17				49 ± 4	1.4				CC50 (FM3A/0; FM3A/0, read-out: CC50 FM3A/0): 310 ± 60 nM
O=c1[nH]c(=O)n([C@H]2C[C@H](O)[C@@H](COP(=O)(O)O)O2)cc1F [5-FdUMP, 5-fluoro-2′-deoxyuridine-5′-monophosphate, reference compound]																					IC50 (Cem/hEnt-1; Homo sapiens, CCRF-CEM, Table 8, read-out: IC50 Cem/hEnt-1): 50 ± 20 nM; IC50 (Cem/hEnt-1; Homo sapiens, CCRF-CEM, in the presence of NBMPR, read-out: IC50 Cem/hEnt-1 + NBMPR): 1060 nM; IC50 (Cem/hEnt-1; Homo sapiens, CCRF-CEM, in the presence of dipyridamole, read-out: IC50 Cem/hEnt-1 + dipyridamole): 1740 nM; IC50 (Cem/hEnt-0; Homo sapiens, CCRF-CEM, Table 8): 3600 ± 690 nM
CC(C)(NP(=O)(OCC1OC(n2cc(F)c(=O)[nH]c2=O)CC1O)Oc1cccc2ccccc12)C(=O)OCc1ccccc1 (stereo not drawn) [CPF 395, 5-Fluoro-2′deoxyuridine-5′-O-[1-naphthyl (benzoxy-α,α-dimethylglycine)]phosphate]														42			2.4				IC50 (Cem/0): 160 ± 20 nM; CC50 (L1210/0; Table 2, mycoplasma negative cells, read-out: CC50 L1210): 19 nM; IC50 (L1210/0; Table 6): 11 ± 5 nM; IC50 (L1210/0; Table 7): 19 ± 4 nM; IC50 (Cem/TK^−): 2400 ± 800 nM; IC50 (HeLa): 78 ± 20 nM; CC50 (L1210.Hyor; read-out: CC50 L1210/Hyor, Table 2, mycoplasma positive cells): 45 nM; IC50 (L1210.Hyor; read-out: IC50 L1210.Hyor, Table 7): 45 ± 4 nM; IC50 (HeLa/TK^−): 3100 ± 600 nM; IC50 (L1210/TK^−): 130 ± 40 nM; IC50 (Cem/hEnt-1; Table 8, read-out: IC50 Cem/hEnt-1): 50 ± 30 nM; IC50 (Cem/hEnt-1; in the presence of NBMPR, read-out: IC50 Cem/hEnt-1 + NBMPR): 280 nM; IC50 (Cem/hEnt-1; in the presence of dipyridamole, read-out: IC50 Cem/hEnt-1 + dipyridamole): 160 nM; IC50 (Cem/hEnt-0; Table 8): 400 ± 130 nM
CCOC(=O)C(C)(C)NP(=O)(OC[C@H]1O[C@@H](n2cc(F)c(=O)[nH]c2=O)CC1O)Oc1cccc2ccccc12 (stereo partly drawn) [CPF 396, 5-Fluoro-2′deoxyuridine-5′-O-[1-naphthyl (ethoxy-α,α-dimethylglycine)]phosphate]	360 ± 50	360 ± 50	64 ± 8	64 ± 8	6900 ± 1800		200 ± 120	3200	820 ± 160	820 ± 160	56	56 ± 40	6900 ± 1800	33	170	170 ± 30	3	210 ± 70	620	520	IC50 (Cem/hEnt-0; Homo sapiens, CCRF-CEM): 1400 ± 200 nM
